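96-well plates; 48 h exposure; 5 concentrations. Endpoints by linear interpolation between flanking doses. Not reached: highest tested concentration assigned. At the TGI there is no net growth.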
Tests used:
Assay in all cases: DTP human tumour cell line panel, 48 h
A498 renal = system: A498 renal
A549 NSCLC = system: A549 NSCLC
ACHN renal = system: ACHN renal
CCRF-CEM leukemia = system: CCRF-CEM leukemia
COLO 205 colon = system: COLO 205 colon
DLD-1 colon = system: DLD-1 colon
HCC-2998 colon = system: HCC-2998 colon
HCT-116 colon = system: HCT-116 colon
HL-60(TB) leukemia = system: HL-60(TB) leukemia
HOP-18 NSCLC = system: HOP-18 NSCLC
HOP-62 NSCLC = system: HOP-62 NSCLC
HOP-92 NSCLC = system: HOP-92 NSCLC
HT29 colon = system: HT29 colon
IGROV1 ovarian = system: IGROV1 ovarian
K-562 leukemia = system: K-562 leukemia
KM12 colon = system: KM12 colon
LXFL 529 NSCLC = system: LXFL 529 NSCLC
M19-MEL melanoma = system: M19-MEL melanoma
NCI-H226 lung = system: NCI-H226 lung
NCI-H23 lung = system: NCI-H23 lung
NCI-H460 lung = system: NCI-H460 lung
NCI-H522 lung = system: NCI-H522 lung
OVCAR-3 ovarian = system: OVCAR-3 ovarian
OVCAR-5 ovarian = system: OVCAR-5 ovarian
OVCAR-8 ovarian = system: OVCAR-8 ovarian
SF-268 CNS = system: SF-268 CNS
SF-295 CNS = system: SF-295 CNS
SF-539 CNS = system: SF-539 CNS
SK-MEL-28 melanoma = system: SK-MEL-28 melanoma
SK-MEL-5 melanoma = system: SK-MEL-5 melanoma
SK-OV-3 ovarian = system: SK-OV-3 ovarian
SNB-19 CNS = system: SNB-19 CNS
SNB-75 CNS = system: SNB-75 CNS
SW-620 colon = system: SW-620 colon
TK-10 renal = system: TK-10 renal
UACC-257 melanoma = system: UACC-257 melanoma
UACC-62 melanoma = system: UACC-62 melanoma
UO-31 renal = system: UO-31 renal
786-0 renal = system: 786-0 renal
BT-549 breast = system: BT-549 breast
CAKI-1 renal = system: CAKI-1 renal
DU-145 prostate = system: DU-145 prostate
EKVX NSCLC = system: EKVX NSCLC
HCT-15 colon = system: HCT-15 colon
HS 578T breast = system: HS 578T breast
LOX IMVI melanoma = system: LOX IMVI melanoma
M14 melanoma = system: M14 melanoma
MALME-3M melanoma = system: MALME-3M melanoma
MCF7 breast = system: MCF7 breast
MDA-MB-231 breast = system: MDA-MB-231 breast
MDA-MB-435 = system: MDA-MB-435
MDA-N = system: MDA-N
MOLT-4 leukemia = system: MOLT-4 leukemia
NCI/ADR-RES ovarian = system: NCI/ADR-RES ovarian
OVCAR-4 ovarian = system: OVCAR-4 ovarian
PC-3 prostate = system: PC-3 prostate
RPMI-8226 leukemia = system: RPMI-8226 leukemia
RXF 393 renal = system: RXF 393 renal
SK-MEL-2 melanoma = system: SK-MEL-2 melanoma
SN12C renal = system: SN12C renal
SR leukemia = system: SR leukemia
T-47D breast = system: T-47D breast
U251 CNS = system: U251 CNS

Measured: TGI

Nc1c(C(=O)N/N=C/c2ccc(Cl)cc2)sc(=S)n1-c1ccccc1
91.9 µM: NCI-H522 lung
> 100 µM: A498 renal | A549 NSCLC | ACHN renal | CCRF-CEM leukemia | COLO 205 colon | DLD-1 colon | HCC-2998 colon | HCT-116 colon | HL-60(TB) leukemia | HOP-18 NSCLC | HOP-62 NSCLC | HOP-92 NSCLC | HT29 colon | IGROV1 ovarian | K-562 leukemia | KM12 colon | LXFL 529 NSCLC | M19-MEL melanoma | NCI-H226 lung | NCI-H23 lung | NCI-H460 lung | OVCAR-3 ovarian | OVCAR-5 ovarian | OVCAR-8 ovarian | SF-268 CNS | SF-295 CNS | SF-539 CNS | SK-MEL-28 melanoma | SK-MEL-5 melanoma | SK-OV-3 ovarian | SNB-19 CNS | SNB-75 CNS | SW-620 colon | TK-10 renal | UACC-257 melanoma | UACC-62 melanoma | UO-31 renal

Cn1cc(S(=O)(=O)NC(=O)Nc2ccc(Cl)cc2)c2ccccc21
55.2 µM: TK-10 renal
20.7 µM: HCT-15 colon
79.9 µM: UACC-62 melanoma
> 100 µM: 786-0 renal | A498 renal | A549 NSCLC | ACHN renal | BT-549 breast | CCRF-CEM leukemia | COLO 205 colon | DU-145 prostate | EKVX NSCLC | HCC-2998 colon | HCT-116 colon | HL-60(TB) leukemia | HOP-62 NSCLC | HOP-92 NSCLC | HS 578T breast | HT29 colon | IGROV1 ovarian | K-562 leukemia | KM12 colon | LOX IMVI melanoma | M14 melanoma | MALME-3M melanoma | MCF7 breast | MDA-MB-231 breast | MDA-MB-435 | MDA-N | MOLT-4 leukemia | NCI-H226 lung | NCI-H23 lung | NCI-H460 lung | NCI/ADR-RES ovarian | OVCAR-3 ovarian | OVCAR-4 ovarian | OVCAR-5 ovarian | OVCAR-8 ovarian | PC-3 prostate | RPMI-8226 leukemia | RXF 393 renal | SF-268 CNS | SF-295 CNS | SF-539 CNS | SK-MEL-2 melanoma | SK-MEL-28 melanoma | SK-MEL-5 melanoma | SK-OV-3 ovarian | SN12C renal | SNB-19 CNS | SNB-75 CNS | SR leukemia | SW-620 colon | T-47D breast | U251 CNS | UACC-257 melanoma | UO-31 renal
81 µM: CAKI-1 renal
69.3 µM: NCI-H522 lung

CCOC(=O)/C(C#N)=C1/Sc2c(ncn(/N=C/c3ccc(OC)cc3)c2=O)N1c1ccccc1
62.3 µM: HOP-62 NSCLC
81.5 µM: SK-MEL-28 melanoma
77.7 µM: SF-268 CNS
59 µM: HOP-92 NSCLC
34.8 µM: SF-539 CNS
> 100 µM: A549 NSCLC | ACHN renal | CCRF-CEM leukemia | COLO 205 colon | DLD-1 colon | HCC-2998 colon | HCT-116 colon | HL-60(TB) leukemia | HT29 colon | IGROV1 ovarian | K-562 leukemia | KM12 colon | LXFL 529 NSCLC | M19-MEL melanoma | MOLT-4 leukemia | NCI-H226 lung | NCI-H23 lung | NCI-H460 lung | NCI-H522 lung | OVCAR-3 ovarian | OVCAR-8 ovarian | RPMI-8226 leukemia | SK-MEL-5 melanoma | SK-OV-3 ovarian | SNB-19 CNS | SR leukemia | SW-620 colon | TK-10 renal | U251 CNS | UACC-257 melanoma | UACC-62 melanoma | UO-31 renal
76.2 µM: SF-295 CNS

N#CC1(Nc2ccc(-c3ccc(NC4(C#N)CCCC4)cc3)cc2)CCCC1
> 100 µM: 786-0 renal | A498 renal | A549 NSCLC | ACHN renal | BT-549 breast | CAKI-1 renal | COLO 205 colon | DU-145 prostate | EKVX NSCLC | HCC-2998 colon | HCT-116 colon | HCT-15 colon | HL-60(TB) leukemia | HOP-62 NSCLC | HOP-92 NSCLC | HS 578T breast | HT29 colon | IGROV1 ovarian | K-562 leukemia | KM12 colon | LOX IMVI melanoma | M14 melanoma | MALME-3M melanoma | MCF7 breast | MDA-MB-231 breast | MDA-MB-435 | MDA-N | MOLT-4 leukemia | NCI-H226 lung | NCI-H23 lung | NCI-H460 lung | NCI-H522 lung | NCI/ADR-RES ovarian | OVCAR-3 ovarian | OVCAR-4 ovarian | OVCAR-5 ovarian | OVCAR-8 ovarian | PC-3 prostate | RPMI-8226 leukemia | RXF 393 renal | SF-268 CNS | SF-295 CNS | SK-MEL-2 melanoma | SK-MEL-28 melanoma | SK-MEL-5 melanoma | SK-OV-3 ovarian | SN12C renal | SNB-19 CNS | SNB-75 CNS | SR leukemia | SW-620 colon | T-47D breast | TK-10 renal | U251 CNS | UACC-257 melanoma | UACC-62 melanoma | UO-31 renal
78.2 µM: SF-539 CNS
61.2 µM: CCRF-CEM leukemia
